# Results published in patent EP2387997A1, “Use of dronedarone for the preparation of a medicament for the prevention of cardiovascular events in patients who developed permanent atrial fibrillation throughout the period the dronedarone is administered” (SANOFI, priority 2010, dated 2011).
# Counter-ions that a name gives are not always drawn. Like-named read-outs stand apart in the source and are kept apart here.
# Key:
# [1] = tested on: patients with persistent atrial fibrillation; conditions: cited from earlier work; for effectiveness in increasing the time to a recurrence of atrial fibrillation relative to sotalol / increasing the time to a recurrence of atrial fibrillation: P<0.001; for number of strokes per 100 patient-years of follow-up: persistent atrial fibrillation, placebo 1.91, calculated from the article of Singh et al, page 1866; for increasing the time to a recurrence of atrial fibrillation: versus placebo
# [2] = tested on: stroke; conditions: ATHENA trial; cited from earlier work
# [3] = tested on: patients who developed permanent atrial fibrillation/flutter; assay: prospective, multinational, double-blind, randomized, multi-center, placebo-controlled, parallel group trial of dronedarone hydrochloride; assay type: in vivo
# Experimental: • Patients in permanent atrial fibrillation • Patients in unstable hemodynamic condition such as acute pulmonary edema within 12 hours prior to start of study medication; cardiogenic shock; treatment with IV pressor agents; patients on respirator; congestive heart failure of stage NYHA IV within the last 4 weeks; uncorrected, hemodynamically significant primary obstructive valvular disease; hemodynamically significant obstructive cardomyopathy; a cardiac operation or revascularization procedure within 4 weeks preceding randomization • Planned major non-cardiac or cardiac surgery or procedures including surgery for valvular heart disease, coronary artery bypass graft (CABG), percutaneous coronary intervention (PCI), or on urgent cardiac transplantation list • Acute myocarditis or constrictive pericarditis • Bradycardia < 50 bpm and/or PR-interval ≥ 0.28 sec on the last 12-lead ECG. • Significant sinus node disease (documented pause of 3 seconds or more) or 2nd or 3rd degree atrioventricular block (AV-block) unless treated with a pacemaker.
smiles,measurement,setting,value
CCCCc1oc2ccccc2c1C(=O)c1cc(I)c(OCCN(CC)CC)c(I)c1 [amiodarone],effectiveness in increasing the time to a recurrence of atrial fibrillation relative to sotalol,[1]; analysis according to the treatment actually received,four times as effective
same,effectiveness in increasing the time to a recurrence of atrial fibrillation relative to sotalol,[1]; intention-to-treat analysis,six times as effective as sotalol
same,number of strokes per 100 patient-years of follow-up,[1],2.06 per 100 patient-years
same,increasing the time to a recurrence of atrial fibrillation,[1],significantly more effective than placebo
"CCCCc1oc2ccc(NS(C)(=O)=O)cc2c1C(=O)c1ccc(OCCCN(CCCC)CCCC)cc1 [dronedarone, 2-n-butyl-3-[4-(3-di-n-butylaminopropoxy)benzoyl]-5-methylsulfonamido-benzofuranne]",incidence of stroke,[2],ability to reduce the incidence of stroke
CCCCc1oc2ccc(NS(C)(=O)=O)cc2c1C(=O)c1ccc(OCCCN(CCCC)CCCC)cc1 [dronedarone hydrochloride],"events (stroke, Acute Coronary Syndrome (ACS) or cardiovascular death)","[3]; among the 178 patients who developed permanent atrial fibrillation/flutter on dronedarone hydrochloride, placebo group 24 events (295 patients)",12 events
same,"Calculated relative risk of stroke, Acute Coronary Syndrome (ACS) or cardiovascular death","[3]; dronedarone versus placebo, Cox's proportional hazard model, patients who developed permanent atrial fibrillation/flutter",0.805
same,patients developed permanent atrial fibrillation/flutter,"[3]; of 2301 patients treated with dronedarone hydrochloride (400 mg of base, one tablet morning and evening, 12 to 30 months), placebo group 295",178 patients
same,"decrease of the relative risk of stroke, Acute Coronary Syndrome (ACS) or cardiovascular death","[3]; x = 1-RR, versus placebo, patients who developed permanent atrial fibrillation/flutter",20%
CC(C)NCC(O)c1ccc(NS(C)(=O)=O)cc1 (centres unmarked) [sotalol],number of strokes per 100 patient-years of follow-up,[1],2.71 per 100 patient-years
same,increasing the time to a recurrence of atrial fibrillation,[1],significantly more effective than placebo
